ChEMBL document CHEMBL5113392, “Novel hybrid pyrrolidinedione-thiazolidinones as potential anticancer agents: Synthesis and biological evaluation” (Eur J Med Chem, 2022)
Calls of active or inactive are those of the source. The rule behind the calls is not given here.

What was measured:
[1] = tested on: Hs-578T; experiment: Anticancer activity against human Hs-578T cells assessed as growth inhibition incubated for 48 hrs by SRB assay; format: functional
[2] = tested on: MCF7; experiment: Anticancer activity against human MCF7 cells assessed as total growth inhibition incubated for 48 hrs by SRB assay; format: functional
[3] = tested on: SR; experiment: Anticancer activity against human SR cells assessed as total growth inhibition incubated for 48 hrs by SRB assay; format: functional
[4] = Selectivity index, ratio of GI50 for human HaCaT cells to GI50 for human MDA-MB-231 cells; format: toxicity; details: HaCaT cells versus MDA-MB-231 cells, read-out: RatioGI50
[5] = tested on: NCI-H226; experiment: Anticancer activity against human NCI-H226 cells assessed as lethality incubated for 48 hrs by SRB assay; format: functional; details: read-out: LC50 (the source's name)
[6] = tested on: Malme-3M; experiment: Anticancer activity against human Malme-3M cells assessed as lethality incubated for 48 hrs by SRB assay; format: functional; details: read-out: LC50 (the source's name)
[7] = tested on: SF-539; experiment: Anticancer activity against human SF-539 cells assessed as total growth inhibition incubated for 48 hrs by SRB assay; format: functional
[8] = Selectivity index, ratio of GI50 for human HaCaT cells to GI50 for human A549 cells; format: toxicity; details: HaCaT cells versus A549 cells, read-out: RatioGI50
[9] = tested on: UACC-257; experiment: Anticancer activity against human UACC-257 cells assessed as lethality incubated for 48 hrs by SRB assay; format: functional; details: read-out: LC50 (the source's name)
[10] = tested on: HL-60; experiment: Anticancer activity against human HL-60 cells assessed as lethality incubated for 48 hrs by SRB assay; format: functional; details: read-out: LC50 (the source's name)
[11] = tested on: UACC-62; experiment: Anticancer activity against human UACC-62 cells assessed as lethality incubated for 48 hrs by SRB assay; format: functional; details: read-out: LC50 (the source's name)
[12] = tested on: COLO 205; experiment: Anticancer activity against human COLO 205 cells assessed as total growth inhibition incubated for 48 hrs by SRB assay; format: functional
[13] = tested on: SK-OV-3; experiment: Anticancer activity against human SK-OV-3 cells assessed as growth inhibition incubated for 48 hrs by SRB assay; format: functional
[14] = tested on: MCF7; experiment: Anticancer activity against human MCF7 cells assessed as lethality incubated for 48 hrs by SRB assay; format: functional; details: read-out: LC50 (the source's name)
[15] = tested on: SK-MEL-28; experiment: Anticancer activity against human SK-MEL-28 cells assessed as total growth inhibition incubated for 48 hrs by SRB assay; format: functional
[16] = tested on: 786-0; experiment: Anticancer activity against human 786-0 cells assessed as total growth inhibition incubated for 48 hrs by SRB assay; format: functional
[17] = tested on: SF-539; experiment: Anticancer activity against human SF-539 cells assessed as lethality incubated for 48 hrs by SRB assay; format: functional; details: read-out: LC50 (the source's name)
[18] = tested on: M14; experiment: Anticancer activity against human M14 cells assessed as growth inhibition incubated for 48 hrs by SRB assay; format: functional
[19] = tested on: HT-29; experiment: Anticancer activity against human HT-29 cells assessed as lethality incubated for 48 hrs by SRB assay; format: functional; details: read-out: LC50 (the source's name)
[20] = tested on: UO-31; experiment: Anticancer activity against human UO-31 cells assessed as total growth inhibition incubated for 48 hrs by SRB assay; format: functional
[21] = tested on: SK-MEL-2; experiment: Anticancer activity against human SK-MEL-2 cells assessed as total growth inhibition incubated for 48 hrs by SRB assay; format: functional
[22] = tested on: HOP-62; experiment: Anticancer activity against human HOP-62 cells assessed as lethality incubated for 48 hrs by SRB assay; format: functional; details: read-out: LC50 (the source's name)
[23] = tested on: SNB-19; experiment: Anticancer activity against human SNB-19 cells assessed as growth inhibition incubated for 48 hrs by SRB assay; format: functional
[24] = tested on: OVCAR-4; experiment: Anticancer activity against human OVCAR-4 cells assessed as lethality incubated for 48 hrs by SRB assay; format: functional; details: read-out: LC50 (the source's name)
[25] = tested on: NCI-H322M; experiment: Anticancer activity against human NCI-H322M cells assessed as total growth inhibition incubated for 48 hrs by SRB assay; format: functional
[26] = tested on: SW-620; experiment: Anticancer activity against human SW-620 cells assessed as lethality incubated for 48 hrs by SRB assay; format: functional; details: read-out: LC50 (the source's name)
[27] = tested on: IGROV-1; experiment: Anticancer activity against human IGROV-1 cells assessed as growth inhibition incubated for 48 hrs by SRB assay; format: functional
[28] = Selectivity index, ratio of GI50 for human HaCaT cells to GI50 for human MCF7 cells; format: toxicity; details: HaCaT cells versus MCF7 cells, read-out: RatioGI50
[29] = tested on: Jurkat; experiment: Induction of morphological changes in human Jurkat cells assessed as plasma membrane blebbing incubated for 24 hrs by Hoechst 33258 and propidium iodide staining based fluorescence microscopy; format: functional, cell-based
[30] = tested on: MDA-MB-231; experiment: Anticancer activity against human MDA-MB-231 cells assessed as growth inhibition incubated for 48 hrs by SRB assay; format: functional
[31] = tested on: CCRF-CEM; experiment: Anticancer activity against human CCRF-CEM cells assessed as total growth inhibition incubated for 48 hrs by SRB assay; format: functional
[32] = Selectivity index, ratio of GI50 for human HaCaT cells to GI50 for human Jurkat cells; format: toxicity; details: HaCaT cells versus Jurkat cells, read-out: RatioGI50
[33] = tested on: BT-549; experiment: Anticancer activity against human BT-549 cells assessed as growth inhibition incubated for 48 hrs by SRB assay; format: functional
[34] = tested on: OVCAR-8; experiment: Anticancer activity against human OVCAR-8 cells assessed as total growth inhibition incubated for 48 hrs by SRB assay; format: functional
[35] = tested on: RXF 393; experiment: Anticancer activity against human RXF 393 cells assessed as lethality incubated for 48 hrs by SRB assay; format: functional; details: read-out: LC50 (the source's name)
[36] = tested on: T47D; experiment: Anticancer activity against human T47D cells assessed as growth inhibition incubated for 48 hrs by SRB assay; format: functional
[37] = tested on: SK-MEL-28; experiment: Anticancer activity against human SK-MEL-28 cells assessed as growth inhibition incubated for 48 hrs by SRB assay; format: functional
[38] = tested on: MDA-MB-231; experiment: Anticancer activity against human MDA-MB-231 cells assessed as cell growth inhibition incubated for 72 hrs by MTT assay; format: functional
[39] = tested on: SF-295; experiment: Anticancer activity against human SF-295 cells assessed as lethality incubated for 48 hrs by SRB assay; format: functional; details: read-out: LC50 (the source's name)
[40] = tested on: Salmon testes DNA; experiment: Displacement of methyl green from salmon sperm DNA at 10 uM measured after 2 hrs by fluorescence plate reader method relative to control; format: nucleic-acid assay; details: Salmo salar
[41] = Selectivity index, ratio of GI50 for human HaCaT cells to GI50 for human KB 3-1 cells; format: toxicity; details: HaCaT cells versus KB 3-1 cells, read-out: RatioGI50
[42] = tested on: HCT-15; experiment: Anticancer activity against human HCT-15 cells assessed as lethality incubated for 48 hrs by SRB assay; format: functional; details: read-out: LC50 (the source's name)
[43] = tested on: HeLa; experiment: Anticancer activity against human HeLa cells assessed as cell growth inhibition incubated for 72 hrs by MTT assay; format: functional
[44] = tested on: CCRF-CEM; experiment: Anticancer activity against human CCRF-CEM cells assessed as lethality incubated for 48 hrs by SRB assay; format: functional; details: read-out: LC50 (the source's name)
[45] = tested on: OVCAR-8; experiment: Anticancer activity against human OVCAR-8 cells assessed as growth inhibition incubated for 48 hrs by SRB assay; format: functional
[46] = tested on: SF-539; experiment: Anticancer activity against human SF-539 cells assessed as growth inhibition incubated for 48 hrs by SRB assay; format: functional
[47] = tested on: KB 3-1; experiment: Anticancer activity against human KB 3-1 cells assessed as cell growth inhibition incubated for 72 hrs by MTT assay; format: functional
[48] = tested on: M14; experiment: Anticancer activity against human M14 cells assessed as lethality incubated for 48 hrs by SRB assay; format: functional; details: read-out: LC50 (the source's name)
[49] = tested on: MDA-MB-468; experiment: Anticancer activity against human MDA-MB-468 cells assessed as lethality incubated for 48 hrs by SRB assay; format: functional; details: read-out: LC50 (the source's name)

O=C1CC(N2C(=O)/C(=C/C(Cl)=C/c3ccc([N+](=O)[O-])cc3)SC2=S)C(=O)N1c1ccc(O)cc1 (stereo not drawn)
GI50 [1]: 2800 nM
TGI [2]: 10.7 µM
TGI [3]: 4.97 µM
selectivity ratio [4]: 11.9
CC50 [5]: 50.3 µM
CC50 [6]: 21 µM
TGI [7]: 3.81 µM
selectivity ratio [8]: 10.2
CC50 [9]: 44.2 µM
CC50 [10]: > 100 µM
CC50 [11]: 6.86 µM
TGI [12]: 5.04 µM
GI50 [13]: 2.99 µM
CC50 [14]: > 100 µM
TGI [15]: 4.2 µM
TGI [16]: 4.8 µM
CC50 [17]: 8.43 µM
GI50 [18]: 1460 nM
CC50 [19]: > 100 µM
TGI [20]: 2.79 µM
TGI [21]: 7.83 µM
CC50 [22]: > 100 µM
GI50 [23]: 1340 nM
CC50 [24]: 41.9 µM
TGI [25]: 6.67 µM
CC50 [26]: 6.3 µM
GI50 [27]: 1200 nM
selectivity ratio [28]: 18.4
Activity [29]: Active
GI50 [30]: 2140 nM
TGI [31]: 3.87 µM
selectivity ratio [32]: 56.6
GI50 [33]: 2030 nM
TGI [34]: 14.2 µM
CC50 [35]: 6.76 µM
GI50 [36]: 2450 nM
GI50 [37]: 1950 nM
GI50 [38]: 6.2 µM
CC50 [39]: 5.54 µM
Activity [40]: 6.2%
selectivity ratio [41]: 9.2
CC50 [42]: 6.09 µM
GI50 [43]: 6.13 µM
CC50 [44]: > 100 µM
GI50 [45]: 2160 nM
GI50 [46]: 1720 nM
GI50 [47]: 8 µM
CC50 [48]: 7.51 µM
CC50 [49]: > 100 µM

O=C1CC(N2C(=O)/C(=C/C(Cl)=C/c3ccc([N+](=O)[O-])cc3)SC2=S)C(=O)N1c1ccc(Cl)cc1 (stereo not drawn)
GI50 [1]: 1800 nM
TGI [2]: > 100 µM
TGI [3]: 14.2 µM
selectivity ratio [4]: 15.5
CC50 [5]: > 100 µM
CC50 [6]: > 100 µM
TGI [7]: 4.14 µM
selectivity ratio [8]: 1.56
CC50 [9]: > 100 µM
CC50 [10]: > 100 µM
CC50 [11]: 12 µM
TGI [12]: 3.76 µM
GI50 [13]: 3.56 µM
CC50 [14]: > 100 µM
TGI [15]: 4.02 µM
TGI [16]: 3.33 µM
CC50 [17]: > 100 µM
GI50 [18]: 2110 nM
CC50 [19]: > 100 µM
TGI [20]: 3.3 µM
TGI [21]: 32.1 µM
CC50 [22]: > 100 µM
GI50 [23]: 1170 nM
CC50 [24]: > 100 µM
TGI [25]: > 100 µM
CC50 [26]: > 100 µM
GI50 [27]: 1030 nM
selectivity ratio [28]: 12.6
Activity [29]: Active
GI50 [30]: 3750 nM
TGI [31]: 12.4 µM
selectivity ratio [32]: 29.4
GI50 [33]: 1750 nM
TGI [34]: > 100 µM
CC50 [35]: 5.86 µM
GI50 [36]: 2030 nM
GI50 [37]: 1710 nM
GI50 [38]: 6.45 µM
CC50 [39]: 7.51 µM
Activity [40]: 7.9%
selectivity ratio [41]: 1.42
CC50 [42]: 77.4 µM
GI50 [43]: 6.65 µM
CC50 [44]: > 100 µM
GI50 [45]: 832 nM
GI50 [46]: 1690 nM
GI50 [47]: 70.3 µM
CC50 [48]: > 100 µM
CC50 [49]: 7.22 µM
